Reference: patent publication US20210046190A1, “ANTICANCER AGENT” (OSAKA UNIVERSITY, priority 2018, published 2021)
Values after ≈ are worked out from the molar mass of the structure shown.

Legend:
[1] = test system: PLC; conditions: PLC hepatocellular carcinoma cell line; cited from earlier work
[2] = test system: HuH7; conditions: HuH7 hepatocellular carcinoma cell line; cited from earlier work
[3] = 30 mg once a day in oral administration, acute leukemia; cited from earlier work
[4] = test system: HepG2 cells; experiment: Apoptosis assay, Annexin V-FITC/PI flow cytometry; format: cell-based; conditions: 100 μg/ml
Procedure: The cell apoptosis assay was performed by flow cytometry using an Annexin V-FITC Apoptosis Detection Kit (BioVision, Mountain View, Calif.) according to the manufacturer's protocol. For flow cytometric analysis, HepG2 cells (5×10^5 cells) were trypsinized, gently washed twice with PBS, and subsequently resuspended in 500 μL of 1× binding buffer. The cells were stained by adding 5 μL of Annexin V-FITC and propidium iodide (PI) in the dark at room temperature for 5 minutes. The green fluorescence of FITC-bound Annexin V and the red fluorescence of DNA-bound PI were measured using a Canto II flow cytometer (BD Biosciences).

[5] = test system: HepG2 cells; experiment: Intracellular reactive oxygen species (ROS) levels, CellROX flow cytometry; format: cell-based; conditions: 100 μg/ml, 6 hours
Procedure: CellROX Deep Red Reagent was purchased from Invitrogen (Carlsbad, Calif.), and intracellular ROS levels were measured. […] The treated cells were cultured at 37° C. for 6 hours, and the cell concentration of the sample was adjusted to 5×10^3 cells/ml. Then, the cells were cultured with a CellROX Deep Red Reagent (1 mM, Invitrogen) at 37° C. for 30 minutes while protected from light. Furthermore, the cells were stained with SYTOX Blue Dead Cell Stain (5 mM, Invitrogen), and counted by flow cytometry after dead cell exclusion. Flow cytometric analysis was performed using a Canto II flow cytometer (BD Biosciences).

For CC(C)C[C@H](NC(=O)[C@@H](O)[C@H](N)Cc1ccccc1)C(=O)O [ubenimex, (2S)-2-[(2S,3R)-3-amino-2-hydroxy-4-phenylbutanoylamino]-4-methylpentanoic acid], the IC30 [1] is listed as 498.8 µg/mL (≈ 1620 µM), the IC30 [2] is listed as 394.8 µg/mL (≈ 1280 µM) and the maximum blood concentration [3] is listed as 2.21 µg/mL. For the same compound, the apoptosis [4] was “has an effect of inducing apoptosis” and the “intracellular ROS levels” value [5] was “has an effect of enhancing intracellular ROS levels”.
